In BigSolDB 2.1:

`NC(=O)c1ccc([N+](=O)[O-])cc1` gave a solubility (mole fraction) (in DMF, 283.15 K) of 0.037, a solubility (mole fraction) (in DMF, 288.15 K) of 0.0416 and a solubility (mole fraction) (in DMF, 293.15 K) of 0.0492. The solubility (mole fraction) (in DMF, 298.15 K) was 0.0576, the solubility (mole fraction) (in DMF, 303.15 K) was 0.0691 and the solubility (mole fraction) (in DMF, 308.15 K) was 0.0811. It also gave a solubility (mole fraction) (in DMF, 313.15 K) of 0.0945, a solubility (mole fraction) (in DMF, 318.15 K) of 0.109 and a solubility (mole fraction) (in DMF, 323.15 K) of 0.123. For the same compound, the solubility (mole fraction) (in DMF, 328.15 K) was 0.139, the solubility (mole fraction) (in DMSO, 293.15 K) was 0.0372 and the solubility (mole fraction) (in DMSO, 298.15 K) was 0.0425. For the same compound, the solubility (mole fraction) (in DMSO, 303.15 K) was 0.0504, the solubility (mole fraction) (in DMSO, 308.15 K) was 0.0613 and the solubility (mole fraction) (in DMSO, 313.15 K) was 0.0747. The solubility (mole fraction) (in DMSO, 318.15 K) was 0.0888, the solubility (mole fraction) (in DMSO, 323.15 K) was 0.103 and the solubility (mole fraction) (in DMSO, 328.15 K) was 0.117. For the same compound, the solubility (mole fraction) (in NMP, 283.15 K) was 0.0418, the solubility (mole fraction) (in NMP, 288.15 K) was 0.0472 and the solubility (mole fraction) (in NMP, 293.15 K) was 0.0549. The solubility (mole fraction) (in NMP, 298.15 K) was 0.0653, the solubility (mole fraction) (in NMP, 303.15 K) was 0.0775 and the solubility (mole fraction) (in NMP, 308.15 K) was 0.0917. The solubility (mole fraction) (in NMP, 313.15 K) was 0.108, the solubility (mole fraction) (in NMP, 318.15 K) was 0.125 and the solubility (mole fraction) (in NMP, 323.15 K) was 0.144. For the same compound, the solubility (mole fraction) (in NMP, 328.15 K) was 0.169, the solubility (mole fraction) (in acetonitrile, 283.15 K) was 0.000628 and the solubility (mole fraction) (in acetonitrile, 288.15 K) was 0.000806. The solubility (mole fraction) (in acetonitrile, 293.15 K) was 0.000994, the solubility (mole fraction) (in acetonitrile, 298.15 K) was 0.00126 and the solubility (mole fraction) (in acetonitrile, 303.15 K) was 0.00155. For the same compound, the solubility (mole fraction) (in acetonitrile, 308.15 K) was 0.00195, the solubility (mole fraction) (in acetonitrile, 313.15 K) was 0.00232 and the solubility (mole fraction) (in acetonitrile, 318.15 K) was 0.0028. For the same compound, the solubility (mole fraction) (in acetonitrile, 323.15 K) was 0.00332, the solubility (mole fraction) (in acetonitrile, 328.15 K) was 0.00396 and the solubility (mole fraction) (in ethanol, 283.15 K) was 0.00157. For the same compound, the solubility (mole fraction) (in ethanol, 288.15 K) was 0.00182, the solubility (mole fraction) (in ethanol, 293.15 K) was 0.00231 and the solubility (mole fraction) (in ethanol, 298.15 K) was 0.00287. It also gave a solubility (mole fraction) (in ethanol, 303.15 K) of 0.00351, a solubility (mole fraction) (in ethanol, 308.15 K) of 0.00429 and a solubility (mole fraction) (in ethanol, 313.15 K) of 0.00513. It also gave a solubility (mole fraction) (in ethanol, 318.15 K) of 0.00616, a solubility (mole fraction) (in ethanol, 323.15 K) of 0.00735 and a solubility (mole fraction) (in ethanol, 328.15 K) of 0.00882. It also gave a solubility (mole fraction) (in ethyl acetate, 283.15 K) of 0.00203, a solubility (mole fraction) (in ethyl acetate, 288.15 K) of 0.00236 and a solubility (mole fraction) (in ethyl acetate, 293.15 K) of 0.00286. For the same compound, the solubility (mole fraction) (in ethyl acetate, 298.15 K) was 0.00376, the solubility (mole fraction) (in ethyl acetate, 303.15 K) was 0.00471 and the solubility (mole fraction) (in ethyl acetate, 308.15 K) was 0.00583. It also gave a solubility (mole fraction) (in ethyl acetate, 313.15 K) of 0.00706, a solubility (mole fraction) (in ethyl acetate, 318.15 K) of 0.0086 and a solubility (mole fraction) (in ethyl acetate, 323.15 K) of 0.0103. For the same compound, the solubility (mole fraction) (in ethyl acetate, 328.15 K) was 0.0122, the solubility (mole fraction) (in ethylene glycol, 283.15 K) was 0.00356 and the solubility (mole fraction) (in ethylene glycol, 288.15 K) was 0.00417. The solubility (mole fraction) (in ethylene glycol, 293.15 K) was 0.00496, the solubility (mole fraction) (in ethylene glycol, 298.15 K) was 0.006 and the solubility (mole fraction) (in ethylene glycol, 303.15 K) was 0.00719. For the same compound, the solubility (mole fraction) (in ethylene glycol, 308.15 K) was 0.00873, the solubility (mole fraction) (in ethylene glycol, 313.15 K) was 0.0102 and the solubility (mole fraction) (in ethylene glycol, 318.15 K) was 0.0119. For the same compound, the solubility (mole fraction) (in ethylene glycol, 323.15 K) was 0.0138, the solubility (mole fraction) (in ethylene glycol, 328.15 K) was 0.0164 and the solubility (mole fraction) (in isobutanol, 283.15 K) was 0.000751. It also gave a solubility (mole fraction) (in isobutanol, 288.15 K) of 0.000942, a solubility (mole fraction) (in isobutanol, 293.15 K) of 0.00119 and a solubility (mole fraction) (in isobutanol, 298.15 K) of 0.0015. It also gave a solubility (mole fraction) (in isobutanol, 303.15 K) of 0.00187, a solubility (mole fraction) (in isobutanol, 308.15 K) of 0.00233 and a solubility (mole fraction) (in isobutanol, 313.15 K) of 0.00286. The solubility (mole fraction) (in isobutanol, 318.15 K) was 0.00342, the solubility (mole fraction) (in isobutanol, 323.15 K) was 0.00403 and the solubility (mole fraction) (in isobutanol, 328.15 K) was 0.00467. The solubility (mole fraction) (in isopropanol, 283.15 K) was 0.00127, the solubility (mole fraction) (in isopropanol, 288.15 K) was 0.0015 and the solubility (mole fraction) (in isopropanol, 293.15 K) was 0.00185. For the same compound, the solubility (mole fraction) (in isopropanol, 298.15 K) was 0.0023, the solubility (mole fraction) (in isopropanol, 303.15 K) was 0.00286 and the solubility (mole fraction) (in isopropanol, 308.15 K) was 0.00341. The solubility (mole fraction) (in isopropanol, 313.15 K) was 0.00408, the solubility (mole fraction) (in isopropanol, 318.15 K) was 0.00492 and the solubility (mole fraction) (in isopropanol, 323.15 K) was 0.00579. The solubility (mole fraction) (in isopropanol, 328.15 K) was 0.00677, the solubility (mole fraction) (in n-butanol, 283.15 K) was 0.000449 and the solubility (mole fraction) (in n-butanol, 288.15 K) was 0.000554. The solubility (mole fraction) (in n-butanol, 293.15 K) was 0.000712, the solubility (mole fraction) (in n-butanol, 298.15 K) was 0.000907 and the solubility (mole fraction) (in n-butanol, 303.15 K) was 0.00116. It also gave a solubility (mole fraction) (in n-butanol, 308.15 K) of 0.00144, a solubility (mole fraction) (in n-butanol, 313.15 K) of 0.00176 and a solubility (mole fraction) (in n-butanol, 318.15 K) of 0.00213. The solubility (mole fraction) (in n-butanol, 323.15 K) was 0.00253, the solubility (mole fraction) (in n-butanol, 328.15 K) was 0.00301 and the solubility (mole fraction) (in n-propanol, 283.15 K) was 0.00096. For the same compound, the solubility (mole fraction) (in n-propanol, 288.15 K) was 0.00119, the solubility (mole fraction) (in n-propanol, 293.15 K) was 0.00151 and the solubility (mole fraction) (in n-propanol, 298.15 K) was 0.00189. The solubility (mole fraction) (in n-propanol, 303.15 K) was 0.00228, the solubility (mole fraction) (in n-propanol, 308.15 K) was 0.00276 and the solubility (mole fraction) (in n-propanol, 313.15 K) was 0.00327. It also gave a solubility (mole fraction) (in n-propanol, 318.15 K) of 0.00381, a solubility (mole fraction) (in n-propanol, 323.15 K) of 0.00447 and a solubility (mole fraction) (in n-propanol, 328.15 K) of 0.00533. The solubility (mole fraction) (in water, 283.15 K) was 0.000322, the solubility (mole fraction) (in water, 288.15 K) was 0.000395 and the solubility (mole fraction) (in water, 293.15 K) was 0.000498. For the same compound, the solubility (mole fraction) (in water, 298.15 K) was 0.0006, the solubility (mole fraction) (in water, 303.15 K) was 0.000754 and the solubility (mole fraction) (in water, 308.15 K) was 0.000924. The solubility (mole fraction) (in water, 313.15 K) was 0.00112, the solubility (mole fraction) (in water, 318.15 K) was 0.00137 and the solubility (mole fraction) (in water, 323.15 K) was 0.00161. The solubility (mole fraction) (in water, 328.15 K) was 0.00186.
